Experiments:
B1 bradykinin receptor [1] = biological target: T1, B1 bradykinin receptor (Homo sapiens, UniProt P46663); assay: Binding affinity to human bradykinin B1 receptor expressed in CHO cells; type: cell-based
T1 sequence (P46663 whole entry): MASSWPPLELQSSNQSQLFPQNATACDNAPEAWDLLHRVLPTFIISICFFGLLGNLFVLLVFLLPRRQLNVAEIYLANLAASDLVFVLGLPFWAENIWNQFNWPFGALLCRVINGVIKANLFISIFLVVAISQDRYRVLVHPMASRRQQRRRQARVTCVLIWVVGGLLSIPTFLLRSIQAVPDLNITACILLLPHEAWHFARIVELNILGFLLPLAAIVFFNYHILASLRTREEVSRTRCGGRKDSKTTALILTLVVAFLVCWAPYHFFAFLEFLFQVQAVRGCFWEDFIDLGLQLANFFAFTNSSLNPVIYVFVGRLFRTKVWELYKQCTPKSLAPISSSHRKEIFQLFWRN

LLC-PK1 = assay: Ratio of permeability from basolateral to apical over apical to basolateral side of pig MDR1 transfected LLC-PK1 cells; type: ADME, cell-based, Sus scrofa
[2] = Oral bioavailability in Sprague-Dawley rat at 10 mg/kg; type: ADME, organism-based; conditions: in vivo
[3] = Volume of distribution in Beagle dog at 0.25 mg/kg, iv; type: ADME, organism-based, Canis lupus familiaris; design: dose 0.25 mg/kg, route intravenous; conditions: in vivo
[4] = Clearance in Beagle dog at 0.25 mg/kg, iv; type: ADME, organism-based, Canis lupus familiaris; design: dose 0.25 mg/kg, route intravenous; conditions: in vivo
[5] = Apparent permeability across pig LLC-PK1 cells; type: ADME, cell-based, Sus scrofa
[6] = Half life in Sprague-Dawley rat at 10 mg/kg, po or 2 mg/kg, iv; type: ADME, organism-based; conditions: in vivo
[7] = Half life in Beagle dog at 0.25 mg/kg, iv; type: ADME, organism-based, Canis lupus familiaris; design: dose 0.25 mg/kg, route intravenous; conditions: in vivo
[8] = Clearance in Sprague-Dawley rat at 10 mg/kg, po or 2 mg/kg, iv; type: ADME, organism-based; conditions: in vivo
B1 bradykinin receptor [9] = biological target: T1, B1 bradykinin receptor; assay: […] human bradykinin B1 receptor by FLIPR assay
[10] = Volume of distribution in Sprague-Dawley rat at 10 mg/kg, po or 2 mg/kg, iv; type: ADME, organism-based; conditions: in vivo, read-out: Vdss
Cytochrome P450 2D6 = Cytochrome P450 2D6 (Homo sapiens, UniProt P10635); assay: Inhibition of CYP2D6; type: ADME
Cytochrome P450 3A4 = Cytochrome P450 3A4 (Homo sapiens, UniProt P08684); assay: Inhibition of CYP3A4; type: ADME
Cytochrome P450 2C9 = Cytochrome P450 2C9 (Homo sapiens, UniProt P11712); assay: Inhibition of CYP2C9; type: ADME
[11] = Oral bioavailability in Beagle dog at 3 mg/kg by cassette dosing; type: ADME, organism-based, Canis lupus familiaris; conditions: in vivo
[12] = Clearance in rhesus monkey at 1 mg/kg, po or 1 mg/kg, iv; type: ADME, organism-based, Macaca mulatta; conditions: in vivo
[13] = Oral bioavailability in rhesus monkey at 1 mg/kg; type: ADME, organism-based, Macaca mulatta; conditions: in vivo
[14] = Half life in rhesus monkey at 1 mg/kg, po or 1 mg/kg, iv; type: ADME, organism-based, Macaca mulatta; conditions: in vivo
[15] = Half life in Beagle dog at 3 mg/kg, po or 1 mg/kg, iv by cassette dosing; type: ADME, organism-based, Canis lupus familiaris; conditions: in vivo
[16] = Clearance in Beagle dog at 3 mg/kg, po or 1 mg/kg, iv by cassette dosing; type: ADME, organism-based, Canis lupus familiaris; conditions: in vivo

Chain of Cytochrome P450 2D6 (P10635 whole entry): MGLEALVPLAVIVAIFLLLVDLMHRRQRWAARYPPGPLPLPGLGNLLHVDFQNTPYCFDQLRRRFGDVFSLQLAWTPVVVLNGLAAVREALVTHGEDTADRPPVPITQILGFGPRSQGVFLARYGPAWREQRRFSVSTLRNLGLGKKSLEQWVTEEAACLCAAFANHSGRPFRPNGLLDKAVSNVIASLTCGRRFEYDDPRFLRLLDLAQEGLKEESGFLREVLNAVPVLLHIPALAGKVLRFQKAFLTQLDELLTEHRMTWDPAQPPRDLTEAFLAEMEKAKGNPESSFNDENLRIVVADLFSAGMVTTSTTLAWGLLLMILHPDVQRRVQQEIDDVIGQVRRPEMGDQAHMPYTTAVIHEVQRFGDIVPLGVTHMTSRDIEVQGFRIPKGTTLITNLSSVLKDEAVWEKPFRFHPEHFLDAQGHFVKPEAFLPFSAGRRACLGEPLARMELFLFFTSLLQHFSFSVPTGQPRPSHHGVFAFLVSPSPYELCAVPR
Chain of Cytochrome P450 3A4 (P08684 whole entry): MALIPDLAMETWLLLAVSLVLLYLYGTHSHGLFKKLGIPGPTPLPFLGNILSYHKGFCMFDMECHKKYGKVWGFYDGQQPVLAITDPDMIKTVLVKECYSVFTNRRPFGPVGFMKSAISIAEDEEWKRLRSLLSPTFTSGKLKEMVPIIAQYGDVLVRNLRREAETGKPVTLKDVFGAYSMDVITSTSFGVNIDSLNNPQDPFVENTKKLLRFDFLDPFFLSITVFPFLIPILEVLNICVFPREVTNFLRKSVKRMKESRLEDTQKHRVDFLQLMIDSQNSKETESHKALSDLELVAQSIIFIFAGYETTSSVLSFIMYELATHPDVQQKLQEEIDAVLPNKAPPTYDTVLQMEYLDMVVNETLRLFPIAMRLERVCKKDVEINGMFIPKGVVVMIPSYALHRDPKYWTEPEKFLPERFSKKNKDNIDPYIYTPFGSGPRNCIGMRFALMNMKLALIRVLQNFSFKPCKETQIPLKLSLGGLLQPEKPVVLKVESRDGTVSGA
Chain of Cytochrome P450 2C9 (P11712 whole entry): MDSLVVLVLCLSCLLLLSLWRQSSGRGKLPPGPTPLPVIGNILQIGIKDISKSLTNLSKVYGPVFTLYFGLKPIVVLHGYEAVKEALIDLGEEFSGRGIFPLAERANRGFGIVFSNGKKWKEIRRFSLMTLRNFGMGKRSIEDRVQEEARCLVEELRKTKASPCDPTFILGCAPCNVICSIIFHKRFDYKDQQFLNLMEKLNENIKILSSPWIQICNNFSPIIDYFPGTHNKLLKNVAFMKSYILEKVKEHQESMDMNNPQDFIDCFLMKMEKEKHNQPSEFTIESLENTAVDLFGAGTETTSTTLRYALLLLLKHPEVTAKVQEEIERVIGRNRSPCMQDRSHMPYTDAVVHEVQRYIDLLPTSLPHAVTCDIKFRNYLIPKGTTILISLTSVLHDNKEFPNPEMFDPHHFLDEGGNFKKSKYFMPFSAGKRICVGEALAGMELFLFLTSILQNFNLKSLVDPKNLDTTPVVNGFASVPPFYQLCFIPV

Row | SMILES | Ki (B1 bradykinin receptor [1]) [nM] | Ratio (LLC-PK1) | Vd [3] [L/kg] | clearance [4] [mL/min/kg] | Papp [5] [×10⁻⁶ cm/s] | half-life [7] [h] | further results
1 | COC(=O)c1c(F)cccc1-c1ccc(CNC(=O)[C@H](C)O)c(F)c1 | 660 | – | – | – | – | – | –
2 | CCC(O)(CC)C(=O)NCc1ccc(-c2cccc(F)c2C(=O)OC)cc1F | 1090 | – | – | – | – | – | –
3 | COC(=O)c1c(F)cccc1-c1ccc(CNC(=O)[C@](C)(O)C(F)(F)F)c(F)c1 | 579 | – | – | – | – | – | –
4 | Cc1noc(-c2c(F)cc(Cl)cc2-c2cnc([C@@H](C)NC(=O)[C@@](C)(O)C(F)(F)F)c(F)c2)n1 | 0.66 | 1.7 | 1.2 | 1 | 35 | 15 | bioavailability [2]: 32%; half-life [6]: 1.2 h; clearance [8]: 22 mL/min/kg; IC50 (B1 bradykinin receptor [9]): 6.65 nM; Vd [10]: 1.3 L/kg
5 | COC(=O)c1c(F)cccc1-c1ccc(CNC(=O)[C@H](O)C(F)(F)F)c(F)c1 | 479 | – | – | – | – | – | –
6 | COC(=O)c1c(F)cccc1-c1ccc(CNC(=O)C(C)(C)O)c(F)c1 | 125 | – | – | – | – | – | –
7 | COC(=O)c1c(F)cccc1-c1ccc(CNC(=O)C2(NC(=O)C(F)(F)F)CC2)c(F)c1 | – | 4.1 | – | – | – | – | –
8 | Cc1noc(-c2c(Cl)cc(Cl)cc2-c2cnc([C@@H](C)NC(=O)[C@@](C)(O)C(F)(F)F)c(F)c2)n1 | 0.79 | 1.3 | 0.66 | 0.91 | 33 | 9.5 | bioavailability [2]: 21%; half-life [6]: 3.9 h; clearance [8]: 20 mL/min/kg; IC50 (B1 bradykinin receptor [9]): 6.65 nM; Vd [10]: 1 L/kg
9 | C[C@@H](NC(=O)[C@@](C)(O)C(F)(F)F)c1ncc(-c2cc(Cl)cc(F)c2-c2nnn(C)n2)cc1Cl | 0.43 | 1.8 | 0.74 | 1.3 | 26 | 9.8 | bioavailability [2]: 71%; half-life [6]: 4.9 h; clearance [8]: 2.4 mL/min/kg; Vd [10]: 0.86 L/kg
10 | COC(=O)c1c(F)cccc1-c1ccc(CNC(=O)[C@@H](O)C(C)C)c(F)c1 | 71.5 | – | – | – | – | – | –

Continued, in another order:

Row | Ki (B1 bradykinin receptor [1]) [nM] | Ratio (LLC-PK1) | Vd [3] [L/kg] | clearance [4] [mL/min/kg] | Papp [5] [×10⁻⁶ cm/s] | half-life [7] [h] | SMILES | further results
11 | 109 | – | – | – | – | – | COC(=O)c1c(F)cccc1-c1ccc(CNC(=O)[C@@H](O)C(F)(F)F)c(F)c1 | –
12 | 516 | – | – | – | – | – | COC(=O)c1c(F)cccc1-c1ccc(CNC(=O)CO)c(F)c1 | –
13 | 88.5 | – | – | – | – | – | COC(=O)c1c(F)cccc1-c1ccc(CNC(=O)[C@@H](O)C(C)(C)C)c(F)c1 | –
14 | 0.59 | 2.8 | 0.47 | 0.22 | 36 | 38 | C[C@@H](NC(=O)[C@@](C)(O)C(F)(F)F)c1ncc(-c2cc(Cl)cc(F)c2-c2nnn(C)n2)cc1F | bioavailability [2]: 53%; IC50 (Cytochrome P450 2D6): > 10000 nM; half-life [6]: 27 h; clearance [8]: 1 mL/min/kg; IC50 (Cytochrome P450 3A4): > 10000 nM; IC50 (Cytochrome P450 2C9): > 10000 nM; IC50 (B1 bradykinin receptor [9]): 4.9 nM; Vd [10]: 0.54 L/kg
15 | 1050 | – | – | – | – | – | COC(=O)c1c(F)cccc1-c1ccc(CNC(=O)[C@@H](C)O)c(F)c1 | –
16 | 59.1 | – | – | – | – | – | COC(=O)c1c(F)cccc1-c1ccc(CNC(=O)C2(O)CC2)c(F)c1 | –
17 | 83.5 | – | – | – | – | – | COC(=O)c1c(F)cccc1-c1ccc(CNC(=O)[C@@](C)(O)C(C)C)c(F)c1 | –
18 | 24.5 | 1.6 | 1.2 | 16 | 32 | 1.4 | COC(=O)c1c(F)cccc1-c1ccc(CNC(=O)[C@@](C)(O)C(F)(F)F)c(F)c1 | IC50 (B1 bradykinin receptor [9]): 43.6 nM
19 | 95 | – | – | – | – | – | COC(=O)c1c(F)cccc1-c1ccc(CNC(=O)C(O)(C(F)(F)F)C(F)(F)F)c(F)c1 | –
20 | 0.35 | 1.6 | 0.73 | 3.2 | 23 | 3.6 | COC(=O)c1c(Cl)cc(Cl)cc1-c1cnc([C@@H](C)NC(=O)[C@@](C)(O)C(F)(F)F)c(F)c1 | bioavailability [2]: 47%; half-life [6]: 5.6 h; clearance [8]: 7.8 mL/min/kg; IC50 (B1 bradykinin receptor [9]): 3.93 nM; Vd [10]: 1.2 L/kg
21 | – | – | 0.51 | 0.42 | 27 | 17 | Cc1nc(-c2c(F)cc(Cl)cc2-c2cnc([C@@H](C)NC(=O)[C@@](C)(O)C(F)(F)F)c(F)c2)no1 | bioavailability [2]: 34%; bioavailability [11]: 84%; clearance [12]: 7.1 mL/min/kg; half-life [6]: 2 h; clearance [8]: 4.9 mL/min/kg; bioavailability [13]: 52%; half-life [14]: 1.3 h; half-life [15]: 11 h; clearance [16]: 0.45 mL/min/kg; Vd [10]: 0.52 L/kg
